The record followed here is patent publication US10889575B2, “4,4-diphenylpiperidine compounds or pharmaceutically acceptable salts thereof, pharmaceutical compositions and uses thereof” (Academy of Military Medical Sciences, priority 2017, dated 2021).

Series [1] relates to acetic acid writhing in mice. In words: mouse acetic acid writhing model (analgesic effect). In kind it is in vivo, Kunming mice. Conditions: intragastric 30 mg/kg; for Writhing inhibition rate (%): 40 min before i.p. 0.6% acetic acid, writhings counted over 15 min. From the text:
1. Experimental purposes: To determine the analgesic activity of Compound (4) hydrochloride and Compounds (1), (2), (3), (5) in a mouse acetic acid writhing model.
2. Experimental materials: Kunming mice (18-22 g), half male and half female, were provided by the Experimental Animal Center of the Academy of Military Medical Sciences.
The mice were weighed and labeled, 10 mice in each group (half male and half female), the mice were divided into 7 groups, including 5 experimental groups (using Compound (4) hydrochloride, Compound (1), (2), (3), (5), respectively), positive control group (using NMED-160) and negative control group (using normal saline). Among them, NMED-160 used in the positive control group was a selective small molecule N-type calcium ion channel blocker, which had entered the phase II clinical trial and could be synthesized by referring to document^[11], and the structural formula thereof is as follows: […]
The mice were intragastrically administered with drug (30 mg/kg). After 40 minutes, 0.4 mL of 0.6% (v/v) acetic acid was intraperitoneally injected. After 5 minutes, the number of mouse writhings in the subsequent 15 minutes was recorded. The inhibition rate of the drug on the acetic acid writhing in mice was calculated according to the following formula, and the analgesic effect of the drug was evaluated.
A represents the number of writhings in the negative control group;
B represents the number of writhings in the experimental groups or the positive control group.
For orientation: In writhing tests, fewer writhes than in controls are read as antinociception.

Series [2] concerns N-type calcium ion channel (α1B/β1b/α2δ). Briefly: N-type calcium ion channel current suppression, two-electrode voltage clamp in Xenopus oocytes. Format: cell-based. Conditions: 10 μM. Here is the method:
To determine the current suppressing effects of Compound (4) hydrochloride and Compounds (1), (2), (3), (5) of the present invention on N-type calcium ion channel (α1B/β1b/α2δ) transiently expressed in Xenopus oocytes.
Plasmids α1B, α2δ, β1b were injected into Xenopus oocytes in concentration ratio of 1:1:1, and the total volume of the three plasmids injected into per cell was about 46 nL. The injected cells were placed in ND-96 medium at 18° C. for 48 hours, then the expressed current was recorded.
Perfusion administration method was adopted with a flow rate of 3 mL/min and a test drug concentration of 10 μM. Using two-electrode voltage clamp technique, the cell was clamped at −100 mV, stepped at 10 mV, depolarized to +60 mV, and the current was recorded.
Current inhibition rate (%)=100×(current amplitude after administration−current amplitude before administration)/current amplitude before administration
Background: Two-electrode voltage clamp holds a large cell at a set potential and records current.

The nature of series [3]: Rapid evaluation of pharmacokinetics in rats. Format: in vivo, SD rats. As to the method: Compound (1) was dissolved in 25% (w/v) aqueous solution of hydroxypropyl-β-cyclodextrin;
Adult SD rats, 180-220 g in body weight, male, purchased from the Animal Center of the Academy of Military Medical Sciences, Animal Certificate SCXK-(Army)-2012-0004;
Six adult SD rats were randomly numbered, and divided into 2 groups to receive intravenous injection (i.v., 1.85 mg/kg) and oral administration (p.o., 11 mg/kg) of Compound (1), respectively; blood samples were collected at 0.1 mL before administration and 2 minutes, 5 minutes, 15 minutes, 30 minutes, 60 minutes, 2 hours, 4 hours, 7 hours and 24 hours after administration, placed in anticoagulation tubes, centrifuged for 15 minutes (3500 rpm) to separate plasma, and 0.05 mL plasma samples were accurately taken and frozen in a refrigerator at −30° C. for later tests.
To the 0.05 mL rat plasma sample, 0.3 mL of acetonitrile containing the internal standard substance megestrol (100 ng/mL) and 0.005 mL of blank acetonitrile were added, vortexed for 1 minute on a vortex mixer, and centrifuged for 10 minutes (14,000 g), about 0.15 mL of the supernatant was taken and placed into an injection vial, injected 5 μL to LC-MS/MS for detection and analysis by referring to the method of the above section 2. […] The results of 1 # to 3 # were averaged, the results of 4 # to 6 # were averaged, and the relationship curves of the average concentrations of Compound (1) in the rats of i.v. administration and in the rats of p.o. administration against time were obtained and shown in FIG. 2. The Winnolin pharmacokinetic software was used to analyze the measured data and calculate the main pharmacokinetic parameters, including the area under curve (AUC), clearance rate (CL), apparent distribution volume (V), terminal elimination half life (t1/2) and mean residence time (MRT) for the intravenous injection, as well as the area under curve (AUC), terminal elimination half life (t1/2), mean residence time (MRT), peak concentration (Cmax), time to peak (Tmax) and biological force (F) for the oral administration.

Another series in a line: in vivo. Conditions: SD, rat, iv.
Series [4] is described as follows: Evaluation of the central nervous system distribution in rats. Conditions: for Kp at 2 h: SD, rat.
[5] abbreviates: male, SD, rat, plasma, intravenous injection 1.85 mg/kg, n = 3.
[6] abbreviates: male, SD, rat, plasma, oral administration 11 mg/kg, n = 3.

“And” between values parts separate entries of the source, which are not always exact repeats. Identical values can stand only once. Counter-ions that a name gives are not always drawn. Like-named read-outs stand apart in the source and are kept apart here.

The melting point is the temperature, or range, at which the solid turns liquid. In turn, `COc1cc(CN2CCC(c3ccccc3)(c3ccccc3)CC2)cc(OC)c1OC` (as salt: hydrochloride) had a melting point of 235 to 237 °C.
Usually AUC stands for concentration integrated over time. A high value points to high exposure. For orientation: MRT means the average time that molecules of a dose stay in the body. In general, clearance refers to the rate of elimination divided by the concentration. Read a high clearance as efficient removal. The half-life is how long it takes for the measured level to halve. In general, Cmax refers to the maximum level reached in the sampled fluid or tissue. By Tmax is commonly meant the time from dosing to the highest level. For `O=C(CCN1CCC(c2ccccc2)(c2ccccc2)CC1)c1ccc2[nH]c(=O)oc2c1` [Compound (1), 6-(3-(4,4-diphenylpiperidinyl)-propionyl)benzoxazolin-2-one], the melting point is 236 °C (dec.). Moreover, the “Writhing inhibition rate (%)” value in series [1] was determined as 58.77%. Also, in series [1] (acetic acid writhing), the “analgesic effect (in words)” value was “comparable to that of NMED-160”. In addition, the “Current inhibition rate (%)” value in series [2] came to 70.6%. The “effect of liver metabolism on the clearance in vivo” value in series [3] (i.v. clearance compared with rat liver blood flow (3.3 L/h/kg)) is on record as “about 70%”. Also, in series [3] (intravenous injection 1.85 mg/kg, n = 3, 1.85 mg/kg), the V is 12.39 L/kg and 12.39 ± 3.17 L/kg. In series [3] (setting [5]), this compound had an AUC of 750 ± 98.2 ng·h/mL, a mean residence time (MRT) of 3.87 ± 0.18 h, a clearance of 39.7 mL/min/kg and a half-life of 5 ± 0.88 h. In series [3] (setting [6]), this compound gave an exposure (AUC) of 1670 ± 222 ng·h/mL, a Cmax of 188 ± 28.5 ng/mL, an MRT of 5.6 ± 0.46 h and a half-life of 5.4 ± 1.5 h. Moreover, the time to peak (Tmax) in series [3] (male, SD, rat, plasma, po, 11 mg/kg, oral administration 11 mg/kg, n = 3, read-out: Tmax) is 1 to 2 h. Besides, in series [3] (oral 11 mg/kg vs intravenous 1.85 mg/kg, n = 3), the F was 44.7% and 44.7 ± 5.93%. Besides, the time of peak concentration (Tmax) in series [3] (oral administration 11 mg/kg, n = 3, 11 mg/kg) was determined as 1.33 ± 0.58 h. For the same compound, the concentration at 2 h in the series “in vivo” is 271 ng/mL and 998 ng/g. The same compound displayed a Kp at 2 h in series [4] (brain/plasma, intravenous) of 3 ± 0.71. The compound further had a Kp at 2 h in series [4] (in vivo) of 3 to 4. Also, in series [4] (spinal cord/plasma, intravenous), the Kp at 2 h was found to be 3.7 ± 1.3. Moreover, in series [4] (rats, i.v. bolus then instillation, 2 hours after administration, n = 3), the “Concentration, Rat brain tissue” value came to 808.3 ± 233.8 ng/g.
`O=C(CN1CCC(c2ccccc2)(c2ccccc2)CC1)c1ccc2[nH]c(=O)oc2c1` [Compound (2), 6-(3-(4,4-diphenylpiperidinyl)-acetyl)benzoxazolin-2-one]: in series [1], the “Writhing inhibition rate (%)” value is given as 54.66%. Moreover, in series [2], the “Current inhibition rate (%)” value amounted to 65.6%.
In the case of `CN(C)c1ccc(CN2CCC(c3ccccc3)(c3ccccc3)CC2)cc1` [Compound (3), 1-(4-dimethylaminobenzyl)-4,4-diphenylpiperidine], the melting point lay in the range of 128 to 130 °C. Also, in series [1], the “Writhing inhibition rate (%)” value turned out to be 23.17%. For the same compound, the “Current inhibition rate (%)” value in series [2] was 42.3%.
For `COc1cc(CN2CCC(c3ccccc3)(c3ccccc3)CC2)cc(OC)c1OC.Cl` [Compound (4) hydrochloride, 1-(3,4,5-trimethoxybenzyl)-4,4-diphenylpiperidine hydrochloride], the “Writhing inhibition rate (%)” value in series [1] is recorded as 39.68%. In series [2], the “Current inhibition rate (%)” value was found to be 54.1%.
On to `c1ccc(C2(c3ccccc3)CCN(Cc3cccs3)CC2)cc1` [Compound (5), 1-(2-methylthienyl)-4,4-diphenylpiperidine], for which the “Writhing inhibition rate (%)” value in series [1] stood at 46.87%. In series [2], the “Current inhibition rate (%)” value was found to be 45.3%.
For `O=C(CC(c1ccccc1)c1ccccc1)N1CCN(C(c2ccccc2)c2ccccc2)CC1` [NMED-160, reference compound], the “Writhing inhibition rate (%)” value in series [1] is 51.75%.
